Test results published in publication PMC5923120, “Acylhydrazones as Antifungal Agents Targeting the Synthesis of Fungal Sphingolipids” (Antimicrobial Agents and Chemotherapy, 2018).
Read-outs that look alike come from different tables or passages of the source.

Key:
[1] = Pharmacokinetic studies (plasma concentration); format: in vivo, mice
Description: For i.p. study, BHBM and D13 were dissolved in a mixture of cremophore-ethanol (1:1) to prepare a 10-mg/ml stock solution. The stock solution was diluted in PBS to obtain 200-μg/ml and 400-μg/ml solutions for i.p. administrations in C3H/HeN mice (n = 3). The compounds were administered to control (healthy) mice or immunocompromised mice infected with P. murina at doses of 0.8 mg/kg and 1.6 mg/kg via tail vein injection or intraperitoneal injection in a final volume of 100 μl. The mice were sacrificed and blood samples were collected predose and 0.5, 1, 2, 4, 8, 12, and 24 h after administration into K2EDTA-containing tubes. The samples were centrifuged immediately, and plasma was collected and stored at −80°C until bioanalysis. Plasma samples were extracted using methylene chloride.
Briefly, 50 μl of the plasma sample was taken into a glass vial, and 10 μl of internal standard N′-(3-bromobenzylidene)-4-hydroxybenzohydrazide was added. After the contents of the glass vial were mixed, 1 ml of methylene chloride was added to the vial and the samples were vortex mixed for 30 s, followed by centrifugation for 5 min. Eight hundred microliters of supernatant then was transferred to another tube and evaporated to dryness using a centrifugal evaporator. The residue was reconstituted in 100 μl acetonitrile-water (50:50) solution, mixed, and transferred to mass spectrometry vials. Separation was performed under isocratic reverse-phase chromatographic conditions using a Waters XBridge C18 column (3.5 μm; 2.1 by 100 mm) (Waters, Milford, MA), a Finnigan Surveyor MS pump (Thermo Fisher Scientific), and a Finnigan Micro AS autosampler (Thermo Fisher Scientific).
The mobile phase consisted of water-acetonitrile with 0.1% formic acid (50:50) run at a flow rate of 200 μl/min. Five-microliter aliquots then were analyzed using an LTQ-FT liquid chromatography-tandem mass spectrometer (LC-MS/MS) with the electrospray source in the positive ion mode (Thermo Fisher Scientific). For i.v. and p.o. administration, the formulation consisted of a 0.5-mg/ml solution of PEG 400-DMA (9:1). A volume of 1.21 mg of D13 was dissolved in 0.242 ml of […] (DMA) by vortexing and sonication, and then 2.178 ml of PEG440 was added with vortexing and sonication until a clear solution was obtained. For a 4-mg/ml solution of PEG 400-DMA (9:1), 2.13 mg of D13 was dissolved in 0.053 ml of DMA by vortexing and sonication, and then 0.479 ml of PEG 440 was added with vortexing and sonication until a clear solution was obtained. For i.v. and p.o. administration of BHBM, the formulation consisted of a 0.5-mg/ml solution of 5% DMSO and 5% solutol in water. A volume of 0.98 mg of BHBM was dissolved in 0.098 ml of DMSO with vortexing and sonication. […]

[2] = human, with NADPH
Description: (§2) To test for metabolic stability, 40 μl of 10 mM NADPH solution was added to each well of a 96-well plate. The final concentration of NADPH was 1 mM. The mixture was prewarmed at 37°C for 5 min. The negative-control samples were prepared by replacing NADPH solutions with 40 μl of ultrapure H2O. The negative control was used to exclude the misleading factor that resulted from the instability of the chemical itself. Samples with NADPH were prepared in duplicate. Negative controls were prepared in singlet. The reaction was started with the addition of 4 μl of 200 μM control compound or test compound solutions. […] An aliquot of 90 μl of the supernatant was mixed with 90 μl of ultrapure H2O and then used for LC-MS/MS analysis.

Candida krusei ATCC 6258 = experiment: Synergistic assay (FIC), CK Flu R2; format: cell-based; details: Pichia kudriavzevii, ATCC6258
Description: (§1) Synergistic activity was assayed by calculating the fractional inhibitory index (FIC). Briefly, in a 96-well plate, drug A (D13) was serially diluted from 16 to 0.015 μg/ml (11 dilutions), whereas drug B (either fluconazole, amphotericin B, caspofungin, itraconazole, or voriconazole) was serially diluted from 12 to 0.19 μg/ml for fluconazole, 5 to 0.078 μg/ml for amphotericin B, or 8 to 0.007 μg/ml for caspofungin, itraconazole, or voriconazole (seven dilutions). The FIC was defined as (MIC combined/MIC drug A alone) + (MIC combined/MIC drug B alone). Synergism was categorized with the following scale: strongly synergistic effect, FIC of <0.5; synergistic effect, FIC of <1; additive effect, FIC of 1; no effect, FIC between 1 and 2; antagonistic effect, FIC of >2.

[3] = tested on: Cryptococcus neoformans H99; experiment: Synergistic assay (FIC), CN; format: cell-based
Description: as §1

Candida krusei = experiment: Synergistic assay (FIC), CK Flu R1; format: cell-based; details: Pichia kudriavzevii
Description: as §1

[4] = tested on: Aspergillus fumigatus 293; experiment: Synergistic assay (FIC), AF; format: cell-based
Description: as §1

[5] = mouse, with NADPH
Description: as §2

Candida albicans A39 = experiment: Synergistic assay (FIC), CA; format: cell-based
Description: as §1

P. murina = experiment: Murine model of pneumocystosis; format: in vivo, mice; details: i.p. 7.2 mg/kg/day
Description: C3H/HeN mice ordered from the National Cancer Institute were infected with P. murina pneumonia through exposure to mice with a fulminant P. murina infection (seed mice). These mice are immune suppressed by the addition of dexamethasone at 4 mg/liter to the drinking water. Sulfuric acid at 1 ml/liter was also added to the drinking water for disinfection. The seed mice were rotated within the cages for 2 weeks and then removed. After the mice had developed a moderate infection level (approximately 5 weeks), the mice were divided into a negative-control group (control steroid), positive-control group (trimethoprim-sulfamethoxazole), and D13 group. Compound was solubilized in DMSO for a stock solution of 50 mg/ml. Compound was refrigerated before and after solubilization. Stock solution was diluted in PBS to a final concentration of 1.8 mg/ml. Mice were intraperitoneally (i.p.) injected with 100 μl of diluted stock for a total dose of approximately 180 μg/day or 7.2 mg/kg/day based on average mouse weights of 25 g. […] Slides were made from the lung homogenates at different dilutions and stained with Diff-Quik to quantify the trophic forms and cresyl echt violet to quantify the asci. Efficacy is based on the reduction of organism burden between the treatment groups and the negative-control group as determined by microscopic evaluation.

Candida albicans 3022 = experiment: Synergistic assay (FIC), CA Flu-R; format: cell-based
Description: as §1

## Cc1ccccc1C(=O)N/N=C/c1cc(Br)ccc1O [BHBM, (E)-N′-(3-bromo-6-hydroxybenzylidene)-2-methylbenzohydrazide]
[1]; i.p. administration
  time up to which detected in plasma: ≤ 4 h
[1]; i.v. injection
  time up to which detected in plasma: 8 h
[1]; i.v., reached within the first hour and remained for about 8 h
  plasma concentration: 10 ng/mL

## O=C(N/N=C/c1cc(Br)cc(Br)c1O)c1ccc(Br)cc1 [D13]
[2]
  % remaining at 60 min: 64.95%
Candida krusei ATCC 6258
  MIC: > 1 µg/mL
[3]
  MIC: 0.5 µg/mL
Candida krusei
  MIC: > 1 µg/mL
[1]; i.p. administration
  time up to which detected in plasma: ≥ 20 h
[4]
  MIC: > 1 µg/mL
[5]
  % remaining at 60 min: 62.25%
Candida albicans A39
  MIC: > 1 µg/mL
P. murina; untreated versus treated mice
  number of asci or nuclei in lung homogenates: No differences
P. murina; versus negative control
  survival: did not show better survival
Candida albicans 3022; Candida albicans, 3022, CA Flu-R
  MIC: > 1 µg/mL
Candida albicans 3022; D13 combined with itraconazole, C. albicans clinical isolates resistant to fluconazole
  FIC score: 0.37
